Data on 109 compounds can be found in the OPERA property sets (Mansouri et al. 2018).

Where a SMILES comes first, the peptide text is derived from it. The star is where a group is joined. NHtBu = CC(C)(C)N*

Regarding `O=C(NCCCOc1cccc(CN2CCCCC2)c1)c1ccccc1`, the logP (usually the decadic logarithm of the partition coefficient of the neutral form, usually between octanol and water) was 3.97.
Next, `CN(C)c1ccc2c(c1)C(=O)N(OS(C)(=O)=O)C2=O`: 1.65.
In the case of `Nc1ncnc2c1ncn2C1OC(CO)CC1O` (centres undefined), the lipophilicity (logP) was -0.61.
Next, `CCC(C)OC(=O)C(C(=O)OC(C)CC)=C1SC=CS1` (centres undefined): 4.89; `CN(C)C(=O)COC(=O)c1cc(S(N)(=O)=O)c(Cl)cc1NCc1ccco1`: 1.18.
With `O=C1NC(=O)C(=O)C(=O)N1` the figure was -1.84; with `NC(=O)c1cc(-c2ccccc2)nnc1NCCN1CCOCC1`, 1.86; with `O=C(Cn1cnnn1)N[C@@H]1C(=O)N2C(C(=O)O)=C(CSc3nncs3)CS[C@H]12`, -0.67.
The compound `Nc1ccc(Oc2ccc(N)cc2)cc1` showed a log partition coefficient (logP) of 1.36.
With `Cc1cc(=O)oc2cc(OC3OC(CO)C(O)C(O)C3O)ccc12` (centres undefined) the figure was -0.66; with `Nc1nc(NCCO)c(Cl)nc1[N+](=O)[O-]`, 0.12.
Consider `COc1ccccc1NC(=O)OCCN1CCOCC1`, for which the logP is 1.73.
With `OC1CCN(CCCc2ccccc2COc2ccc(F)cc2)CC1` the figure was 3.3; with `CC(=O)NC(C)C(=O)NC(CCC(=O)O)C(=O)NC(C)C(=O)NC(C)(C)C` (stereo not drawn) (Ac-Ala-Glu-Ala-NHtBu; configuration not given here), -0.67.
On to `CS(=O)(=O)ON1C(=O)c2ccc(N)cc2C1=O`, for which the logP is 0.8.
Next, `Clc1cc(Cl)cc(-c2cc(Cl)c(Cl)c(Cl)c2Cl)c1`: 7.43; `CC(=O)N[C@@H](CO)C(=O)N[C@H](C(N)=O)C(C)C` (Ac-Ser-Val-NH2): -1.53.
Next, `CN1C(=O)NC(=O)C(=O)C1=O`: -1.01.
With `CCCCCOc1ccccc1NC(=O)OCCN1CCOCC1`, the log partition coefficient (logP) stood at 3.7.
As to `CCC1COC(Cn2cncn2)(c2ccc(NC(=O)C(F)(F)F)cc2)O1` (centres undefined), the logP amounted to 1.08.
`CC(C)(C)NCC(O)COCCCc1ccccc1` (centres undefined) returned a logP of 2.58.
As for `O=[N+]([O-])C=C1SCCN1Cc1ccc(Cl)nc1`, the logP was determined as 0.65.
With `CC(CO)OC(C)CO` (centres undefined) the figure was -0.67; with `FC(F)(F)C1(F)C(F)(F)C(F)(F)C(F)(N2C(F)(F)C(F)(F)C(F)(F)C(F)(F)C2(F)F)C(F)(F)C1(F)F` (centres undefined), 7.1; with `CC12CCC(=O)C=C1CCC1C2CCC2(C)C1CCC2(O)C(O)CO` (centres undefined), 2.
With `C#CCOc1c(Cl)cc(NC=NOCc2ccccc2)cc1Cl`, the logP amounted to 4.2.
With `CC(C)(C)NC(=O)C1CN(S(=O)(=O)c2cccc3cccnc23)CCN1CC(O)CC(Cc1ccccc1)C(=O)NC1c2ccccc2CC1O` (centres undefined) the figure was 3.7; with `COc1cccc(NC(=O)OCCN2CCOCC2)c1`, 2.19; with `O=[N+]([O-])c1nc(Br)[nH]c1Br`, 2.82.
With `CC(=O)c1ccc2c(c1)OCCOCCOCCOCCOCCO2` the figure was -0.05; with `N#CC(CCc1ccc(Cl)cc1)(Cn1cncn1)c1ccccc1` (centres undefined), 3.23.
With `Cc1ccc(SCCNc2ccccc2C(N)=O)cc1` the figure was 3.15; with `CC(C)OC(=O)c1cnc2n(c1=O)C(C)CCC2` (centres undefined), 0.99; with `CCCCCC(=O)OCCOCn1cnc2c(=O)[nH]c(N)nc21`, 0.93.
On to `O=[N+]([O-])C=C1NCCN1Cc1cnc(Cl)s1`, for which the logP was -0.04.
With `Cc1cccc(C(=O)NN(C(=O)c2ccccc2Cl)C(C)(C)C)c1` the figure was 3.11.
Next, `O=C(OCCCl)n1cc(F)c(=O)[nH]c1=O`: 0.02.
On to `CCCCCOc1ccccc1NC(=O)OCCN1CCCCC1`, for which the logP was determined as 4.97.
Compound `O=NN(CCCl)C(=O)NC1CCCCC1C(=O)O` (centres undefined) registered a logP of 2.01.
In turn, `Nc1nc(N)nc(C(Cl)(Cl)Cl)n1` returned a logP of 1.24.
Regarding `CC12C=CC(=O)C=C1CCC1C2C(O)CC2(C)C1CCC2(O)C(=O)COC1OC(CO)C(OC2OC(CO)C(O)C(O)C2O)C(O)C1O` (centres undefined), the log partition coefficient (logP) is -0.56.
Next, `Cc1nccc2c1[nH]c1ccccc12`: 3.1; `CCOc1ccc(C(=O)O)cc1OCC`: 2.37; `O=C1CN=C(c2ccccc2)c2cc(C(F)(F)F)ccc2N1`: 3.1.
Next, `C#CCOc1c(Cl)cc(NC=NOc2ccccc2)cc1Cl`: 4.4.
With `COc1cc(C)c2c(c1OC)-c1ccc(OC)c(=O)cc1C(NC(=O)c1ccc([N+](=O)[O-])cc1)CC2` (centres undefined) the figure was 2.96.
For the compound `c1ccc2c(c1)Cc1ccccc1S2`, the logP is 3.86.
As for `COC(=O)Cc1ccc(O)c2ncccc12`, the logP was 1.59.
`CCCCc1ccc(C(=O)OCCN(C)C)cc1`: the lipophilicity (logP) amounted to 4.06.
Consider `CC(=O)OC1C(=O)C2(C)C(O)CC3OCC3(OC(C)=O)C2C(OC(=O)c2ccccc2)C2(O)CC(OC(=O)C(O)CNC(=O)c3ccccc3)C(C)=C1C2(C)C` (centres undefined), for which the logP was 1.75.
With `CCCCOc1ccc(NC(=O)OCCN2CCOCC2)cc1` the figure was 3.35; with `COc1ccc(NC(=O)OCCN2CCOCC2)cc1`, 1.7.
Next, `c1ccc(OCc2cccc(CN3CCCOC3)c2)cc1`: 2.75; `CCOC(=O)c1cc(S(N)(=O)=O)c(Cl)cc1NCc1ccco1`: 2.67.
With `Clc1ccc(-c2c(Cl)c(Cl)cc(Cl)c2Cl)cc1Cl` the figure was 7.2; with `Clc1cc2c(c(Cl)c1Cl)Oc1c(Cl)cccc1O2`, 6.39; with `CCOC(=O)CCC(C)n1nnc2ccccc21` (centres undefined), 2.64.
Regarding `Cn1c([N+](=O)[O-])cnc1COc1ccc(Cl)cc1`, the log partition coefficient (logP) was determined as 1.8.
With `CCOc1ccccc1OCc1ccccc1CCCN1CCC(O)CC1` the figure was 3.1.
`COCCCNc1nc(NC(C)C)nc(SC)n1` returned a logP of 2.82.
With `CCC(=O)C(CS(=O)(=O)c1ccccc1)c1ccc(C)cc1` (centres undefined) the figure was 2.7.
`CCCN1C(=O)NC(=O)C(=O)C1=O` registered a log partition coefficient (logP) of 0.28.
In turn, `Cc1cc(Cl)cc(Cl)c1` gave a logP of 3.99.
Next, `CCCCCCC(=O)OC(C(=O)NC1C(=O)N2C(C(=O)O)=C(C)CSC12)c1ccccc1` (centres undefined): 3.23; `Clc1cccc(-c2c(Cl)cc(Cl)c(Cl)c2Cl)c1Cl`: 7.25.
With `COc1ccccc1SCc1ccccc1CCCN1CCC(O)CC1` the figure was 3.58.
Next, `Cc1ccc2c(=O)[nH]c(=O)[nH]c2c1`: 0.55; `CON=C(C(=O)NC1C(=O)N2C(C(=O)OCOC(=O)C(C)(C)C)=CCSC12)c1csc(N)n1` (centres undefined): 1.76.
`CCOc1ccccc1NC(=O)OCCN1CCOCC1` displayed a logP of 2.27.
`COC(O)Cn1c([N+](=O)[O-])nc(Br)c1Br` (centres undefined) showed a logP of 1.02.
Next, `COc1c([N+](=O)[O-])nc(C)n1C`: -0.09; `O=C(N/N=C/c1ccc[nH]1)Nc1ccccc1`: 2.96.
With `CC(C)(N=C(O)C(Br)C(C)(C)C)c1ccccc1` (centres undefined) the figure was 3.47.
Next, `COc1cccc2c1C(=O)c1c(O)c3c(c(O)c1C2=O)CC(O)(C(O)CO)CC3OC1CC(N2CCOCC2C#N)C(O)C(C)O1` (centres undefined): 1.56; `CCC1(C(C)c2ccccc2)C(=O)NC(=O)N(C)C1=O` (centres undefined): 3.14; `ClC1CC(Cl)C(Cl)CC1Cl` (centres undefined): 2.82.
Consider `CCOC(=O)Oc1cccc(C2(C(=O)CC)CCN(C)CC2)c1`, for which the logP stood at 1.29.
Next, `NC(CCc1ccccc1)C(=O)O` (centres undefined): -1.2; `CN(C)c1nc(=O)cc(-c2ccc([N+](=O)[O-])o2)s1`: 0.55; `CN1CC(O)N(c2nnc(C(C)(C)C)s2)C1=O` (centres undefined): 1.49.
Compound `CC1(c2ccccc2)OC(=O)NC1=O` (centres undefined) gave a logP of 1.85.
Next, `CCNC(=O)c1cccc2c1C(=O)C(=O)N(CC)C2=O`: 0.3.
Next, `CNC(=NC#N)NCCCCc1ncccc1OC`: 1.5.
Next, `CN(C)N=Nc1ccc(CC(=O)O)cc1`: 1.38; `CCOc1cccc(NC(=O)OCCN2CCOCC2)c1`: 2.5.
`CCC1COC(Cn2cncn2)(c2ccc(NC(=O)c3ccc([N+](=O)[O-])cc3)cc2)O1` (centres undefined) came in with a logP of 2.17.
Next, `CN(C)c1nc(=O)n(C2CCCCC2)c(=O)n1C`: 1.85; `CC(=O)NC(CCC(=O)O)C(N)=O` (centres undefined): -2.47; `CC(C)(C)c1ccc2c(c1)OCCOCCOCCOCCO2`: 2.26.
With `Nc1nc(Cl)c2ncn(C3OC(CO)CC3F)c2n1` (centres undefined) the figure was 0.28; with `CN1CCN(Cc2ccc(Cl)nc2)C1=N[N+](=O)[O-]`, 0.26; with `O=S(=O)(NCc1ccccc1)C(F)(F)F`, 2.91.
With `CCC1(CC)OCC(c2ccc(NC(=O)N(C)C)cc2C)CO1` the figure was 2.76; with `c1ccc2c3c([nH]c2c1)CN1CCNCC1C3` (centres undefined), 0.36.
Compound `CN(C)N=Nc1ccc(S(C)(=O)=O)cc1` showed a log partition coefficient (logP) of 1.59.
Next, `OCc1ccc(O)c2ncccc12`: 1.
For `Cc1cn(C2CC(N=[N+]=[N-])C(COC(=O)CCNC(=O)C34CC5CC(CC(C5)C3)C4)O2)c(=O)[nH]c1=O` (centres undefined), the logP turned out to be 2.14.
Next, `CCOC(=O)C(C)Oc1ccc(Oc2cnc3cc(C)ccc3n2)cc1` (centres undefined): 4.11; `OCC1CC(F)C(n2cnc3c(F)ncnc32)O1` (centres undefined): 0.06.
With `Cc1ccc(C(=O)COc2c(C(=O)c3ccc(Cl)c(C)c3Cl)c(C)nn2C)cc1` the figure was 4.69.
Take `C#CCOc1c(Cl)cc(NC=NOC(C)CC)cc1Cl` (centres undefined): the logP was determined as 4.2.
Next, `Clc1ccc(-c2ccc(Cl)c(Cl)c2)c(Cl)c1`: 6.31.
The compound `OC1CCN(CCCc2ccc(CSc3ccccc3)cc2)CC1` displayed a logP of 3.67.
`CCC1COC(Cn2cncn2)(c2ccc(C(=N)N)cc2)O1` (centres undefined) had a logP of 0.85.
Next, `C#CCOc1c(Cl)cc(NC=NOCC)cc1Cl`: 3.6.
With `Cc1c([N+](=O)[O-])ncn1C` the figure was -0.11; with `O=S1(=O)NC(C2CC=CC2)=Nc2ccccc21`, 1.53; with `CC1CC2C3CCC4=CC(=O)C=CC4(C)C3(F)C(O)CC2(C)C1(O)C(=O)NC(CO)c1ccccc1` (centres undefined), 2.89.
`CC(=O)NC(CC(C)C)C(=O)NC(CC(=O)O)C(=O)NC(CC(C)C)C(N)=O` (stereo not drawn) (Ac-Leu-Asp-Leu-NH2; configuration not given here) displayed a logP of 0.16.
